According to publication PMC4250310 (Bioorganic & medicinal chemistry letters, 2014):
In brackets after ≈: the same amount, converted by molar mass.

Legend:
PC12-G93A-YFP cell line = assay: cytotoxicity protection assay against mutant SOD1-induced cytotoxicity; format: cell-based; details: read-out: Potency (EC50)
in vitro [1] = details: plasma
in vitro [2] = details: mouse, microsomes
[3] = ref our previous work; cited from earlier work

For `O=C1CC(=O)N(CCc2ccccc2)C(=O)N1CCc1ccccc1` [Compound 1, 1,3-bis(2-phenylethyl)pyrimidine-2,4,6(1H,3H,5H)-trione], the EC50 (PC12-G93A-YFP cell line) was 1680 nM, the half-life (in vitro [1]) was 63.5 min and the half-life (in vitro [2]) was 16 min. For the same compound, the solubility (physchem) was 31.3 µM (≈ 10.5 µg/mL) and the maximum tolerated dose [3] was 100 mg/kg.
